Measurements as given in ChEMBL document CHEMBL1140598, “A review of anti-infective and anti-inflammatory chalcones” (Eur J Med Chem, 2007).

Assay: Inhibition of LPS-stimulated nitric oxide formation in mouse microglial cells
Assay type: functional, cell-based

IC50: 0.7 µM
Compound: CCCCOc1ccc(OCCCC)c(C(=O)/C=C/c2ccc(Cl)cc2)c1
